The CheMixHub viscosity set
± gives the uncertainty stated by the source.

Assay: xn = mol fraction of the nth substance listed

O=S1(=O)CCCC1 + O
Settings | viscosity [mPa·s]
293.15 K, 101 kPa, x1 = 0.02074 | 1.163 ± 0.011
293.15 K, 101 kPa, x1 = 0.04649 | 1.387 ± 0.015
293.15 K, 101 kPa, x1 = 0.07703 | 1.634 ± 0.021
293.15 K, 101 kPa, x1 = 0.1147 | 1.969 ± 0.029
293.15 K, 101 kPa, x1 = 0.1615 | 2.405 ± 0.041
293.15 K, 101 kPa, x1 = 0.2247 | 3.044 ± 0.057
293.15 K, 101 kPa, x1 = 0.3102 | 3.813 ± 0.079
293.15 K, 101 kPa, x1 = 0.4328 | 4.899 ± 0.11
293.15 K, 101 kPa, x1 = 0.6323 | 6.59 ± 0.16
293.15 K, 101 kPa, x1 = 0.7807 | 8.243 ± 0.2
298 K, 100 kPa, x1 = 0.0215 | 1 ± 0.1
298 K, 100 kPa, x1 = 0.035 | 1.11 ± 0.11
298 K, 100 kPa, x1 = 0.0679 | 1.32 ± 0.13
298 K, 100 kPa, x1 = 0.0888 | 1.51 ± 0.15
298 K, 100 kPa, x1 = 0.121 | 1.74 ± 0.18
298 K, 100 kPa, x1 = 0.221 | 2.52 ± 0.26
298 K, 100 kPa, x1 = 0.569 | 5.19 ± 0.53
298.15 K, 101 kPa, x1 = 0.02074 | 1.038 ± 0.01
298.15 K, 101 kPa, x1 = 0.02077 | 1.01 ± 0.3
298.15 K, 101 kPa, x1 = 0.04267 | 1.17 ± 0.35
298.15 K, 101 kPa, x1 = 0.04649 | 1.221 ± 0.014
298.15 K, 101 kPa, x1 = 0.07103 | 1.59 ± 0.48
298.15 K, 101 kPa, x1 = 0.07703 | 1.458 ± 0.019
298.15 K, 101 kPa, x1 = 0.09929 | 1.64 ± 0.49
298.15 K, 101 kPa, x1 = 0.1147 | 1.735 ± 0.026
298.15 K, 101 kPa, x1 = 0.1615 | 2.129 ± 0.036
298.15 K, 101 kPa, x1 = 0.2247 | 2.656 ± 0.05
298.15 K, 101 kPa, x1 = 0.25 | 2.738 ± 0.038
298.15 K, 101 kPa, x1 = 0.3102 | 3.347 ± 0.069
298.15 K, 101 kPa, x1 = 0.4328 | 4.263 ± 0.096
298.15 K, 101 kPa, x1 = 0.5 | 4.583 ± 0.067
298.15 K, 101 kPa, x1 = 0.6323 | 5.775 ± 0.14
298.15 K, 101 kPa, x1 = 0.75 | 6.772 ± 0.086
298.15 K, 101 kPa, x1 = 0.7807 | 7.049 ± 0.18
298.15 K, 101 kPa, x1 = 0.85 | 7.49 ± 0.089
303.15 K, 101 kPa, x1 = 0.0147 | 0.8884 ± 0.023
303.15 K, 101 kPa, x1 = 0.02074 | 0.927 ± 0.009
303.15 K, 101 kPa, x1 = 0.02077 | 0.91 ± 0.27
303.15 K, 101 kPa, x1 = 0.0208 | 0.9245 ± 0.024
303.15 K, 101 kPa, x1 = 0.04267 | 1.04 ± 0.31
303.15 K, 101 kPa, x1 = 0.04649 | 1.093 ± 0.012
303.15 K, 101 kPa, x1 = 0.0701 | 1.255 ± 0.033
303.15 K, 101 kPa, x1 = 0.07103 | 1.34 ± 0.4
303.15 K, 101 kPa, x1 = 0.0744 | 1.273 ± 0.033
303.15 K, 101 kPa, x1 = 0.0958 | 1.429 ± 0.037
303.15 K, 101 kPa, x1 = 0.09929 | 1.44 ± 0.43
303.15 K, 101 kPa, x1 = 0.1435 | 1.761 ± 0.046
303.15 K, 101 kPa, x1 = 0.1586 | 1.852 ± 0.048
303.15 K, 101 kPa, x1 = 0.1924 | 2.101 ± 0.055
303.15 K, 101 kPa, x1 = 0.25 | 2.287 ± 0.03
303.15 K, 101 kPa, x1 = 0.3022 | 2.856 ± 0.074
303.15 K, 101 kPa, x1 = 0.4496 | 3.865 ± 0.1
303.15 K, 101 kPa, x1 = 0.5 | 3.797 ± 0.05
303.15 K, 101 kPa, x1 = 0.6077 | 4.963 ± 0.13
303.15 K, 101 kPa, x1 = 0.6106 | 5.004 ± 0.13
303.15 K, 101 kPa, x1 = 0.749 | 6.085 ± 0.16
303.15 K, 101 kPa, x1 = 0.75 | 5.994 ± 0.077
303.15 K, 101 kPa, x1 = 0.7813 | 6.555 ± 0.17
303.15 K, 101 kPa, x1 = 0.85 | 7.236 ± 0.092
313.15 K, 101 kPa, x1 = 0.0147 | 0.7245 ± 0.019
313.15 K, 101 kPa, x1 = 0.02077 | 0.74 ± 0.22
313.15 K, 101 kPa, x1 = 0.0208 | 0.753 ± 0.02
313.15 K, 101 kPa, x1 = 0.0701 | 1.014 ± 0.026
313.15 K, 101 kPa, x1 = 0.07103 | 1.01 ± 0.3
313.15 K, 101 kPa, x1 = 0.0744 | 1.029 ± 0.027
313.15 K, 101 kPa, x1 = 0.0958 | 1.152 ± 0.03
313.15 K, 101 kPa, x1 = 0.09929 | 1.15 ± 0.35
313.15 K, 101 kPa, x1 = 0.1435 | 1.414 ± 0.037
313.15 K, 101 kPa, x1 = 0.1586 | 1.484 ± 0.039
313.15 K, 101 kPa, x1 = 0.1924 | 1.681 ± 0.044
313.15 K, 101 kPa, x1 = 0.25 | 1.928 ± 0.025
313.15 K, 101 kPa, x1 = 0.29 | 2.219 ± 0.058
313.15 K, 101 kPa, x1 = 0.3022 | 2.267 ± 0.059
313.15 K, 101 kPa, x1 = 0.4496 | 3.059 ± 0.08
313.15 K, 101 kPa, x1 = 0.5 | 3.212 ± 0.041
313.15 K, 101 kPa, x1 = 0.6077 | 3.923 ± 0.1
313.15 K, 101 kPa, x1 = 0.6106 | 3.962 ± 0.11
313.15 K, 101 kPa, x1 = 0.749 | 4.807 ± 0.12
313.15 K, 101 kPa, x1 = 0.75 | 4.743 ± 0.064
313.15 K, 101 kPa, x1 = 0.7813 | 5.182 ± 0.14
313.15 K, 101 kPa, x1 = 0.85 | 5.24 ± 0.072
323.15 K, 101 kPa, x1 = 0.0147 | 0.6051 ± 0.016
323.15 K, 101 kPa, x1 = 0.02077 | 0.63 ± 0.19
323.15 K, 101 kPa, x1 = 0.0208 | 0.629 ± 0.017
323.15 K, 101 kPa, x1 = 0.04267 | 0.7 ± 0.21
323.15 K, 101 kPa, x1 = 0.0701 | 0.841 ± 0.022
323.15 K, 101 kPa, x1 = 0.07103 | 0.84 ± 0.25
323.15 K, 101 kPa, x1 = 0.0744 | 0.8536 ± 0.022
323.15 K, 101 kPa, x1 = 0.0958 | 0.9537 ± 0.025
323.15 K, 101 kPa, x1 = 0.09929 | 0.96 ± 0.29
323.15 K, 101 kPa, x1 = 0.1435 | 1.165 ± 0.03
323.15 K, 101 kPa, x1 = 0.1586 | 1.221 ± 0.032
323.15 K, 101 kPa, x1 = 0.1924 | 1.379 ± 0.036
323.15 K, 101 kPa, x1 = 0.29 | 1.814 ± 0.047
323.15 K, 101 kPa, x1 = 0.3022 | 1.85 ± 0.048
323.15 K, 101 kPa, x1 = 0.4496 | 2.486 ± 0.065
323.15 K, 101 kPa, x1 = 0.6077 | 3.184 ± 0.083
323.15 K, 101 kPa, x1 = 0.6106 | 3.217 ± 0.084
323.15 K, 101 kPa, x1 = 0.749 | 3.896 ± 0.1
323.15 K, 101 kPa, x1 = 0.7813 | 4.197 ± 0.11
